# Results published in patent US7358359B2, “Antibacterial agents” (University of Washington, priority 2003, dated 2008).
# Like-named read-outs stand apart in the source and are kept apart here.
# Experiments:
# Format in all cases: cell-based
# [1] = tested on: Enterobacter cloacae; experiment: MIC vs enteric organisms: Enterobacter cloacae; conditions: E. clo.
# Experimental: (§1) Bacterial isolates were cultivated from −70° C. frozen stocks by two consecutive overnight passages at 35° C. in ambient air on 5% blood agar (Remel, Lenexa, Kans.). Clinical isolates tested were from a collection composed of isolates collected during clinical trials and recent clinical isolates obtained from various geographically diverse hospitals in the US. Quality control and primary panel strains were from the American Type Culture Collection (ATCC; Rockville, Md.), with the exception of P. aeruginosa PAO200, a strain with a deletion of the mexABoprM genes that was received from Dr. H. Schweizer.
# (§2) Minimum Inhibitory Concentrations (MICs) were determined by the broth microdilution method in accordance with the National Committee for Clinical Laboratory Standards (NCCLS) guidelines. In brief, organism suspensions were are adjusted to a 0.5 McFarland standard to yield a final inoculum between 3×10^5 and 7×10^5 colony-forming units (CFU)/mL. Drug dilutions and inocula were made in sterile, cation adjusted Mueller-Hinton Broth (Remel). An inoculum volume of 100 μl was added to wells containing 100 μl of broth with 2-fold serial dilutions of drug. All inoculated microdilution trays were incubated in ambient air at 35° C. for 18-24 hours. Following incubation, the lowest concentration of the drug that prevented visible growth was recorded as the MIC.
# [2] = tested on: Pseudomonas aeruginosa cystic fibrosis isolate 3236; experiment: MIC vs cystic fibrosis isolate of P. aeruginosa 3236 (sensitive to most antibacterials); conditions: strain 3236, Sensitive
# Experimental: as §1, §2
# [3] = tested on: P. aeruginosa 27853; experiment: MIC broth microdilution, standard panel: P. aeruginosa 27853; conditions: Pseudomonas aeruginosa, standard panel of organisms
# Experimental: as §1, with “Schweizer. […] Strain Z61 (ATCC 35151) is also hypersusceptible to antibacterials. It is thought that the hypersusceptibility of this strain is the result of increased permeability of its outer membrane (Angus B L et al, Antimicrobial Agents and Chemotherapy 1982 21,299-309: Outer membrane permeability in Pseudomonas aeruginosa: Comparison of a wild-type with an antibacterial-supersusceptible mutant).” for “Schweizer.”
# as §2, with “MIC. Performance of the assay was monitored by the use of laboratory quality-control strains against tobramycin, that has a defined MIC spectrum, in accordance with NCCLS guidelines.” for “MIC.”
# [4] = tested on: Pseudomonas aeruginosa cystic fibrosis isolate 3206; experiment: microbe, parasite or virus in culture; conditions: strain 3206, MDR, LpxC inhibitors, MIC key class, read-out: MIC
# Experimental: as §1, §2
# [5] = tested on: Pseudomonas aeruginosa cystic fibrosis isolate 1145; experiment: microbe, parasite or virus in culture; conditions: strain 1145, MDR, read-out: MIC
# Experimental: as §1, §2
# [6] = tested on: non-CF clinical isolates of P. aeruginosa; experiment: MIC vs non-CF clinical isolates of P. aeruginosa; conditions: Pseudomonas aeruginosa
# Experimental: as §1, with “Schweizer. […] Strain Z61 (ATCC 35151) is also hypersusceptible to antibacterials. It is thought that the hypersusceptibility of this strain is the result of increased permeability of its outer membrane (Angus B L et al, Antimicrobial Agents and Chemotherapy 1982 21,299-309: Outer membrane permeability in Pseudomonas aeruginosa: Comparison of a wild-type with an antibacterial-supersusceptible mutant).” for “Schweizer.”
# as §2, with “MIC. Performance of the assay was monitored by the use of laboratory quality-control strains against tobramycin, that has a defined MIC spectrum, in accordance with NCCLS guidelines.” for “MIC.”
# [7] = tested on: Pseudomonas aeruginosa cystic fibrosis isolate 3232; experiment: MIC vs cystic fibrosis isolate of P. aeruginosa 3232 (Ceftaz. R); conditions: strain 3232, Ceftaz. R
# [8] = tested on: P. aeruginosa PAO200 mexAB; experiment: MIC broth microdilution, standard panel: P. aeruginosa PAO200 mexAB; conditions: Pseudomonas aeruginosa, PAO200MEXAB, read-out: MIC P. aeruginosa PAO200 mexAB
# Experimental: as §1, with “Schweizer. […] Strain Z61 (ATCC 35151) is also hypersusceptible to antibacterials. It is thought that the hypersusceptibility of this strain is the result of increased permeability of its outer membrane (Angus B L et al, Antimicrobial Agents and Chemotherapy 1982 21,299-309: Outer membrane permeability in Pseudomonas aeruginosa: Comparison of a wild-type with an antibacterial-supersusceptible mutant).” for “Schweizer.”
# as §2, with “MIC. Performance of the assay was monitored by the use of laboratory quality-control strains against tobramycin, that has a defined MIC spectrum, in accordance with NCCLS guidelines.” for “MIC.”
# [9] = tested on: Pseudomonas aeruginosa cystic fibrosis isolate 3198; experiment: MIC vs cystic fibrosis isolate of P. aeruginosa 3198 (sensitive to most antibacterials); conditions: strain 3198, Sensitive
# Experimental: as §1, §2
# [10] = tested on: Serratia marcescens; experiment: MIC vs enteric organisms: Serratia marcescens; conditions: S. marc.
# Experimental: as §1, §2
# [11] = tested on: E. coli 25922; experiment: MIC broth microdilution, standard panel: E. coli 25922; conditions: Escherichia coli, standard panel of organisms
# Experimental: as §1, with “Schweizer. […] Strain Z61 (ATCC 35151) is also hypersusceptible to antibacterials. It is thought that the hypersusceptibility of this strain is the result of increased permeability of its outer membrane (Angus B L et al, Antimicrobial Agents and Chemotherapy 1982 21,299-309: Outer membrane permeability in Pseudomonas aeruginosa: Comparison of a wild-type with an antibacterial-supersusceptible mutant).” for “Schweizer.”
# as §2, with “MIC. Performance of the assay was monitored by the use of laboratory quality-control strains against tobramycin, that has a defined MIC spectrum, in accordance with NCCLS guidelines.” for “MIC.”
# [12] = tested on: Stenotrophomonas maltophilia; experiment: MIC vs non-fermenting organisms: Stenotrophomonas maltophilia; conditions: Stenotrophomonas maltophilia, S. malt., read-out: MIC
# Experimental: as §1, §2
# [13] = tested on: Pseudomonas aeruginosa cystic fibrosis isolate 3317; experiment: MIC vs cystic fibrosis isolate of P. aeruginosa 3317 (resistant to aztreonam); conditions: strain 3317, Aztr. R
# Experimental: as §1, §2
# [14] = tested on: Klebsiella pneumoniae; experiment: MIC vs enteric organisms: Klebsiella pneumoniae; conditions: K. pneu.
# Experimental: as §1, §2
# [15] = tested on: Escherichia coli; experiment: MIC vs enteric organisms: Escherichia coli clinical isolates
# Experimental: as §1, §2
# [16] = tested on: Acinetobacter calcoaceticus; experiment: MIC vs non-fermenting organisms: Acinetobacter calcoaceticus; conditions: Acinet. calc.
# Experimental: as §1, §2
# [17] = tested on: Proteus mirabilis; experiment: MIC vs enteric organisms: Proteus mirabilis; conditions: P. mir.
# Experimental: as §1, §2
# [18] = tested on: Pseudomonas aeruginosa cystic fibrosis isolate 2196; experiment: MIC vs cystic fibrosis isolate of P. aeruginosa 2196 (resistant to ciprofloxacin); conditions: strain 2196, Cipro R
# Experimental: as §1, §2
# [19] = tested on: Pseudomonas aeruginosa cystic fibrosis isolate 3224; experiment: MIC vs cystic fibrosis isolate of P. aeruginosa 3224; conditions: strain 3224, Tobra R
# Experimental: as §1, §2
# [20] = tested on: Enterobacter aerogenes; experiment: MIC vs enteric organisms: Enterobacter aerogenes; conditions: Klebsiella aerogenes, E. aer.
# Experimental: as §1, §2
# [21] = tested on: Klebsiella oxytoca; experiment: MIC vs enteric organisms: Klebsiella oxytoca; conditions: K. oxy.
# Experimental: as §1, §2
# [22] = tested on: Alcaligenes xylosoxidans; experiment: MIC vs non-fermenting organisms: Alcaligenes xylosoxidans; conditions: Achromobacter xylosoxidans, Alcal. xyl
# Experimental: as §1, §2
# [23] = tested on: Burkholderia cepacia; experiment: MIC vs non-fermenting organisms: Burkholderia cepacia; conditions: B. cepacia
# Experimental: as §1, §2
# [24] = tested on: S. aureus 29213; experiment: MIC broth microdilution, standard panel: S. aureus 29213; conditions: Staphylococcus aureus, standard panel of organisms
# Experimental: as §1, with “Schweizer. […] Strain Z61 (ATCC 35151) is also hypersusceptible to antibacterials. It is thought that the hypersusceptibility of this strain is the result of increased permeability of its outer membrane (Angus B L et al, Antimicrobial Agents and Chemotherapy 1982 21,299-309: Outer membrane permeability in Pseudomonas aeruginosa: Comparison of a wild-type with an antibacterial-supersusceptible mutant).” for “Schweizer.”
# as §2, with “MIC. Performance of the assay was monitored by the use of laboratory quality-control strains against tobramycin, that has a defined MIC spectrum, in accordance with NCCLS guidelines.” for “MIC.”
# [25] = P. aer 12307, comparator antibacterials
# [26] = P. aer psa-6b, comparator antibacterials
# [27] = Burkholderia cepacia, comparator antibacterials, read-out: MIC
compound,measurement,setting,value
"NC[C@H](NC(=O)c1ccc(C#Cc2ccccc2)cc1)C(=O)NO [Example 366, N-[(1S)-1-(aminomethyl)-2-(hydroxyamino)-2-oxoethyl]-4-(phenylethynyl)benzamide]",MIC,[1]; MIC key class,< 6.25 µg/mL
same,MIC,"[2]; LpxC inhibitors, MIC key class",< 6.25 µg/mL
same,MIC,[3],< 6.25 µg/mL
same,MIC,[4],< 6.25 µg/mL
same,MIC,"[5]; LpxC inhibitors, MIC key class",< 6.25 µg/mL
same,MIC,"[6]; P. aer 12307, MIC key class",< 6.25 µg/mL
same,MIC,"[6]; P. aer 27853, MIC key class",< 6.25 µg/mL
same,MIC,"[6]; P. aer psa-6b, MIC key class",6.25 to 50 µg/mL
same,MIC,"[6]; PAO1, P. aer. PAO1, MIC key class",< 6.25 µg/mL
same,MIC,"[7]; LpxC inhibitors, MIC key class",< 6.25 µg/mL
same,MIC,[8],< 6.25 µg/mL
same,MIC,"[9]; LpxC inhibitors, MIC key class",< 6.25 µg/mL
same,MIC,[10]; MIC key class,< 6.25 µg/mL
same,MIC,[11],< 6.25 µg/mL
same,MIC,[12]; MIC key class,6.25 to 50 µg/mL
same,MIC,"[13]; LpxC inhibitors, MIC key class",< 6.25 µg/mL
same,MIC,[14]; MIC key class,6.25 to 50 µg/mL
same,MIC,"[15]; Escherichia coli, E. coli 1619, MIC key class, read-out: MIC",< 6.25 µg/mL
same,MIC,"[15]; Escherichia coli, E. coli 2788, MIC key class, read-out: MIC",< 6.25 µg/mL
same,MIC,[16]; MIC key class,> 50 µg/mL
same,MIC,[17]; MIC key class,< 6.25 µg/mL
same,MIC,"[18]; LpxC inhibitors, MIC key class",< 6.25 µg/mL
same,MIC,"[19]; LpxC inhibitors, MIC key class",< 6.25 µg/mL
same,MIC,[20]; MIC key class,> 50 µg/mL
same,MIC,[21]; MIC key class,6.25 to 50 µg/mL
same,MIC,[22]; MIC key class,< 6.25 µg/mL
same,MIC,"[23]; Burkholderia cepacia, MIC key class, read-out: MIC",6.25 to 50 µg/mL
same,MIC,[24],> 50 µg/mL
"C[C@@H](O)[C@H]1C(=O)N2C(C(=O)O)=C(S[C@@H]3CN[C@H](C(=O)N(C)C)C3)[C@H](C)[C@H]12 [Meropenem, meropenem, reference compound]",MIC,[1]; comparator antibacterials,≤ 0.06 µg/mL
same,MIC,[6]; [25],0.5 µg/mL
same,MIC,[6]; [26],0.25 µg/mL
same,MIC,[10]; comparator antibacterials,0.13 µg/mL
same,MIC,[12]; comparator antibacterials,64 µg/mL
same,MIC,[14]; comparator antibacterials,0.13 µg/mL
same,MIC,"[15]; E. coli 1619, comparator antibacterials",0.13 µg/mL
same,MIC,"[15]; Escherichia coli, E. coli 1619, comparator antibacterials, read-out: MIC",0.25 µg/mL
same,MIC,"[15]; Escherichia coli, E. coli 2788, comparator antibacterials, read-out: MIC",≤ 0.06 µg/mL
same,MIC,[16]; comparator antibacterials,4 µg/mL
same,MIC,[17]; comparator antibacterials,0.5 µg/mL
same,MIC,[20]; comparator antibacterials,2 µg/mL
same,MIC,[21]; comparator antibacterials,≤ 0.06 µg/mL
same,MIC,[22]; comparator antibacterials,0.5 µg/mL
same,MIC,[23]; [27],4 µg/mL
"NC[C@H]1O[C@H](O[C@H]2[C@H](O)[C@@H](O[C@H]3O[C@H](CO)[C@@H](O)[C@H](N)[C@H]3O)[C@H](N)C[C@@H]2N)[C@H](N)C[C@@H]1O [Tobramycin, tobramycin, reference compound]",MIC,[1]; comparator antibacterials,0.06 µg/mL
same,MIC,[2]; comparator antibacterials,0.5 µg/mL
same,MIC,[5]; comparator antibacterials,8 to 32 µg/mL
same,MIC,[6]; [25],8 µg/mL
same,MIC,[6]; [26],2 µg/mL
same,MIC,[7]; comparator antibacterials,1 µg/mL
same,MIC,[9]; comparator antibacterials,2 µg/mL
same,MIC,[10]; comparator antibacterials,2 µg/mL
same,MIC,[12]; comparator antibacterials,0.5 µg/mL
same,MIC,[13]; comparator antibacterials,2 µg/mL
same,MIC,[14]; comparator antibacterials,64 µg/mL
same,MIC,[16]; comparator antibacterials,2 µg/mL
same,MIC,[17]; comparator antibacterials,2 µg/mL
same,MIC,[18]; comparator antibacterials,2 µg/mL
same,MIC,[19]; comparator antibacterials,64 µg/mL
same,MIC,[20]; comparator antibacterials,64 µg/mL
same,MIC,[21]; comparator antibacterials,1 µg/mL
same,MIC,[22]; comparator antibacterials,64 µg/mL
same,MIC,[23]; comparator antibacterials,> 128 µg/mL
same,MIC,[23]; [27],64 µg/mL
